Test results as given in ChEMBL document CHEMBL1201861, “Genomics of Drug Sensitity in Cancer screening data, Wellcome Trust Sanger Institute”.
pIC50: −log10 of the molar value. Values belong to the molecule of their own block, whether it stands above or below them.

Key:
[1] = system: SK-MM-2; assay: cells; type: functional, cell-based, Homo sapiens; conditions: Homo sapiens, SK-MM-2;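 further: growth inhibition of human SK-MM-2 cells, read out with a cell viability assay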
Description: SANGER: Inhibition of human SK-MM-2 cell growth in a cell viability assay.

[2] = system: CESS; assay: SANGER: Inhibition of human CESS cell growth in a cell viability assay.; type: functional, cell-based; conditions: Homo sapiens, CESS
[3] = system: SR; assay: cells; type: functional, cell-based, Homo sapiens; conditions: Homo sapiens, SR
Description: SANGER: Inhibition of human SR cell growth in a cell viability assay.

[4] = system: NCI-H187; assay: cells; type: functional, cell-based, Homo sapiens; conditions: Homo sapiens, NCI-H187;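 further: growth inhibition of NCI-H187 cells, read out as cell viability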
Description: SANGER: Inhibition of human NCI-H187 cell growth in a cell viability assay.

[5] = system: CMK; assay: cells; type: functional, cell-based, Homo sapiens; conditions: Homo sapiens, CMK;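 further: growth inhibition of CMK cells, read out as cell viability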
Description: SANGER: Inhibition of human CMK cell growth in a cell viability assay.

[6] = system: EVSA-T; assay: cells; type: functional, cell-based, Homo sapiens; conditions: Homo sapiens, EVSA-T;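 further: growth inhibition of EVSA-T cells, read out with a cell viability assay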
Description: SANGER: Inhibition of human EVSA-T cell growth in a cell viability assay.

[7] = system: RL95-2; assay: cells; type: functional, cell-based; conditions: Homo sapiens;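 further: RL95-2 growth inhibition determined through a cell viability readout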
Description: SANGER: Inhibition of human RL95-2 cell growth in a cell viability assay.

[8] = system: BC1 cell line; assay: SANGER: Inhibition of human BC-1 cell growth in a cell viability assay.; type: functional, cell-based; conditions: Homo sapiens, BC1
[9] = system: TUR; assay: cells; type: functional, cell-based, Homo sapiens; conditions: Homo sapiens, TUR;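 further: growth inhibition of human TUR cells, read out with a cell viability assay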
Description: SANGER: Inhibition of human TUR cell growth in a cell viability assay.

[10] = system: THP-1; assay: cells; type: functional, cell-based, Homo sapiens; conditions: Homo sapiens, THP-1;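 further: growth inhibition of THP-1 cells, read out via a cell viability assay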
Description: SANGER: Inhibition of human THP-1 cell growth in a cell viability assay.

[11] = system: KYSE-270; assay: cells; type: functional, cell-based, Homo sapiens; conditions: Homo sapiens, KYSE-270;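 further: cell growth inhibition measured with a viability assay in the human KYSE-270 line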
Description: SANGER: Inhibition of human KYSE-270 cell growth in a cell viability assay.

[12] = system: SW-620; assay: cells; type: functional, cell-based, Homo sapiens; conditions: Homo sapiens, SW-620;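 further: growth inhibition of human SW-620 cells, measured by a cell viability assay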
Description: SANGER: Inhibition of human SW620 cell growth in a cell viability assay.

[13] = system: UACC-62; assay: cells; type: functional, cell-based, Homo sapiens; conditions: Homo sapiens, UACC-62;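 further: growth inhibition of human UACC-62 cells, read out by a cell viability assay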
Description: SANGER: Inhibition of human UACC-62 cell growth in a cell viability assay.

[14] = system: SK-LU-1; assay: cells; type: functional, cell-based, Homo sapiens; conditions: Homo sapiens, SK-LU-1;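 further: cell viability assay measuring growth inhibition of human SK-LU-1 cells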
Description: SANGER: Inhibition of human SK-LU-1 cell growth in a cell viability assay.

[15] = system: HN; assay: cells; type: functional, cell-based, Homo sapiens; conditions: Homo sapiens, HN
Description: SANGER: Inhibition of human HN cell growth in a cell viability assay.

[16] = system: SAS; assay: cells; type: functional, cell-based, Homo sapiens; conditions: Homo sapiens, SAS;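 further: growth inhibition of SAS cells, read out with a cell viability assay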
Description: SANGER: Inhibition of human SAS cell growth in a cell viability assay.

[17] = system: NY; assay: cells; type: functional, cell-based, Homo sapiens; conditions: Homo sapiens, NY
Description: SANGER: Inhibition of human NY cell growth in a cell viability assay.

[18] = system: COR-L23; assay: cells; type: functional, cell-based, Homo sapiens; conditions: Homo sapiens, COR-L23;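 further: cell viability assay measuring how strongly compounds suppress growth of COR-L23 cells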
Description: SANGER: Inhibition of human COR-L23 cell growth in a cell viability assay.

[19] = system: ChaGo-K-1; assay: cells; type: functional, cell-based, Homo sapiens; conditions: Homo sapiens, ChaGo-K-1;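 further: growth inhibition of ChaGo-K-1 cells, read out with a cell viability assay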
Description: SANGER: Inhibition of human ChaGo-K-1 cell growth in a cell viability assay.

[20] = system: HuP-T3; assay: cells; type: functional, cell-based, Homo sapiens; conditions: Homo sapiens, HuP-T3;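 further: HuP-T3 cell growth inhibition, read out with a cell viability assay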
Description: SANGER: Inhibition of human HuP-T3 cell growth in a cell viability assay.

[21] = system: MEL-HO; assay: cells; type: functional, cell-based, Homo sapiens; conditions: Homo sapiens, MEL-HO
Description: SANGER: Inhibition of human MEL-HO cell growth in a cell viability assay.

[22] = system: SW780; assay: cells; type: functional, cell-based, Homo sapiens; conditions: Homo sapiens, SW780;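 further: growth inhibition of the cells, read out with a cell viability assay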
Description: SANGER: Inhibition of human SW780 cell growth in a cell viability assay.

[23] = system: DK-MG; assay: cells; type: functional, cell-based, Homo sapiens; conditions: Homo sapiens, DK-MG;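 further: growth inhibition of DK-MG cells, read out with a cell viability assay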
Description: SANGER: Inhibition of human DK-MG cell growth in a cell viability assay.

[24] = system: HCC1954; assay: cells; type: functional, cell-based, Homo sapiens; conditions: Homo sapiens, HCC1954;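 further: growth inhibition of human HCC1954 cells, read out with a cell viability assay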
Description: SANGER: Inhibition of human HCC1954 cell growth in a cell viability assay.

[25] = system: SW756; assay: cells; type: functional, cell-based, Homo sapiens; conditions: Homo sapiens, SW756;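 further: growth inhibition of human SW756 cells, read out with a cell viability assay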
Description: SANGER: Inhibition of human SW756 cell growth in a cell viability assay.

[26] = system: YAPC; assay: cells; type: functional, cell-based, Homo sapiens; conditions: Homo sapiens, YAPC;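 further: growth inhibition of YAPC cells, measured with a cell viability assay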
Description: SANGER: Inhibition of human YAPC cell growth in a cell viability assay.

[27] = system: HO-1-N-1; assay: cells; type: functional, cell-based, Homo sapiens; conditions: Homo sapiens, HO-1-N-1;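 further: growth inhibition of human HO-1-N-1 cells, read out with a cell viability assay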
Description: SANGER: Inhibition of human HO-1-N-1 cell growth in a cell viability assay.

[28] = system: MKN-7; assay: cells; type: functional, cell-based, Homo sapiens; conditions: Homo sapiens, MKN-7;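 further: growth inhibition of MKN-7 cells, read out with a cell viability assay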
Description: SANGER: Inhibition of human MKN7 cell growth in a cell viability assay.

[29] = system: NCI-H520; assay: cells; type: functional, cell-based, Homo sapiens; conditions: Homo sapiens, NCI-H520;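 further: growth inhibition of NCI-H520 cells, measured by a cell viability assay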
Description: SANGER: Inhibition of human NCI-H520 cell growth in a cell viability assay.

[30] = system: NCI-H630; assay: cells; type: functional, cell-based, Homo sapiens; conditions: Homo sapiens, NCI-H630;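 further: growth inhibition of NCI-H630 cells, read out with a cell viability assay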
Description: SANGER: Inhibition of human NCI-H630 cell growth in a cell viability assay.

[31] = system: A549; assay: cells; type: functional, cell-based, Homo sapiens; conditions: Homo sapiens, A549;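 further: growth inhibition of A549 cells, read out with a cell viability assay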
Description: SANGER: Inhibition of human A549 cell growth in a cell viability assay.

[32] = system: BFTC-909; assay: cells; type: functional, cell-based, Homo sapiens; conditions: Homo sapiens, BFTC-909
Description: SANGER: Inhibition of human BFTC-909 cell growth in a cell viability assay.

[33] = system: SW1783; assay: cells; type: functional, cell-based, Homo sapiens; conditions: Homo sapiens, SW1783
Description: SANGER: Inhibition of human SW1783 cell growth in a cell viability assay.

[34] = system: NCI-H1693; assay: cells; type: functional, cell-based, Homo sapiens; conditions: Homo sapiens, NCI-H1693;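 further: growth inhibition of the human cell line, read out with a cell viability assay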
Description: SANGER: Inhibition of human NCI-H1693 cell growth in a cell viability assay.

[35] = system: SF-295; assay: cells; type: functional, cell-based, Homo sapiens; conditions: Homo sapiens, SF-295;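 further: growth inhibition of SF-295 cells, read out with a cell viability assay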
Description: SANGER: Inhibition of human SF295 cell growth in a cell viability assay.

[36] = system: D-566MG; assay: cells; type: functional, cell-based, Homo sapiens; conditions: Homo sapiens, D-566MG
[37] = system: UMUC3; assay: cells; type: functional, cell-based, Homo sapiens; conditions: Homo sapiens, UMUC3;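 further: growth inhibition of human UM-UC-3 cells, read out with a cell viability assay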
Description: SANGER: Inhibition of human UM-UC-3 cell growth in a cell viability assay.

[38] = system: SK-MES-1; assay: cells; type: functional, cell-based, Homo sapiens; conditions: Homo sapiens, SK-MES-1;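 further: growth inhibition of human SK-MES-1 cells, read out with a cell viability assay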
Description: SANGER: Inhibition of human SK-MES-1 cell growth in a cell viability assay.

[39] = system: A-431; assay: cells; type: functional, cell-based, Homo sapiens; conditions: Homo sapiens, A-431;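 further: growth inhibition of A-431 cells, determined with a cell viability read-out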
Description: SANGER: Inhibition of human A431 cell growth in a cell viability assay.

[40] = system: DOK; assay: cells; type: functional, cell-based, Homo sapiens; conditions: Homo sapiens, DOK;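 further: cell viability assay read-out, values reflect inhibition of cell growth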
Description: SANGER: Inhibition of human DOK cell growth in a cell viability assay.

[41] = system: SW13; assay: cells; type: functional, cell-based, Homo sapiens; conditions: Homo sapiens, SW13;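 further: IC50 is inhibition of SW13 cell growth, read out with a cell viability assay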
Description: SANGER: Inhibition of human SW13 cell growth in a cell viability assay.

[42] = system: PC-14; assay: cells; type: functional, cell-based, Homo sapiens; conditions: Homo sapiens, PC-14;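 further: cell viability assay measuring inhibition of PC-14 cell growth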
Description: SANGER: Inhibition of human PC-14 cell growth in a cell viability assay.

[43] = system: HuCCT-1; assay: cells; type: functional, cell-based, Homo sapiens, HuCCT1; conditions: Homo sapiens, HuCCT-1;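 further: growth inhibition of HuCCT-1 cells, read out by a cell viability assay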
Description: SANGER: Inhibition of human HuCCT1 cell growth in a cell viability assay.

[44] = system: RCM-1; assay: cells; type: functional, cell-based, Homo sapiens; conditions: Homo sapiens, RCM-1;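 further: growth inhibition of the RCM-1 line, determined with a cell viability readout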
Description: SANGER: Inhibition of human RCM-1 cell growth in a cell viability assay.

[45] = system: HGC-27; assay: cells; type: functional, cell-based, Homo sapiens; conditions: Homo sapiens, HGC-27;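 further: growth inhibition of human HGC-27 cells, read out in a cell viability assay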
Description: SANGER: Inhibition of human HGC-27 cell growth in a cell viability assay.

[46] = system: T47D; assay: cells; type: functional, cell-based, Homo sapiens; conditions: Homo sapiens, T47D;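 further: growth inhibition of human T47D cells, measured with a cell viability assay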
Description: SANGER: Inhibition of human T47D cell growth in a cell viability assay.

[47] = system: OC-314; assay: cells; type: functional, cell-based, Homo sapiens; conditions: Homo sapiens, OC-314
Description: SANGER: Inhibition of human OC-314 cell growth in a cell viability assay.

[48] = system: VMRC-RCZ; assay: cells; type: functional, cell-based, Homo sapiens; conditions: Homo sapiens, VMRC-RCZ
Description: SANGER: Inhibition of human VMRC-RCZ cell growth in a cell viability assay.

[49] = system: GCT; assay: cells; type: functional, cell-based, Homo sapiens; conditions: Homo sapiens, GCT;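 further: GCT cell line proliferation inhibition, read out with a cell viability assay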
Description: SANGER: Inhibition of human GCT cell growth in a cell viability assay.

[50] = system: BOKU; assay: cells; type: functional, cell-based, Homo sapiens; conditions: Homo sapiens, BOKU;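 further: growth inhibition of the human BOKU cell line, read out by a cell viability assay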
Description: SANGER: Inhibition of human BOKU cell growth in a cell viability assay.

SMILES: COc1cc(N2CCN(C)CC2)ccc1Nc1ncc2c(n1)N(C)c1ccccc1C(=O)N2C
pIC50 [1]: 5.59 | pIC50 [2]: 5.11 | pIC50 [3]: 5.19 | pIC50 [4]: < 5.10 | pIC50 [5]: 5.41 | pIC50 [6]: < 5.10 | pIC50 [7]: < 5.10 | pIC50 [8]: < 5.10 | pIC50 [9]: < 5.10 | pIC50 [10]: < 5.10

pIC50 [11]: 5.97 | pIC50 [12]: 6.02 | pIC50 [13]: 7.46 | pIC50 [14]: 6.15 | pIC50 [15]: 6.64 | pIC50 [16]: 7.48 | pIC50 [17]: 6.75 | pIC50 [18]: 6.23 | pIC50 [19]: 6.53 | pIC50 [20]: 5.89 | pIC50 [21]: 7.05 | pIC50 [22]: 5.24 | pIC50 [23]: 5.54 | pIC50 [24]: 6.05 | pIC50 [25]: 6.95 | pIC50 [26]: 6.10 | pIC50 [27]: 5.85 | pIC50 [28]: 5.35 | pIC50 [29]: 6.22 | pIC50 [6]: 6.85 | pIC50 [30]: 6.09 | pIC50 [31]: 7.85 | pIC50 [32]: 6.59 | pIC50 [33]: 6.67 | pIC50 [34]: 5.90 | pIC50 [35]: 6.20 | pIC50 [36]: 6.94 | pIC50 [37]: 6.79 | pIC50 [38]: 5.98 | pIC50 [39]: 5.83 | pIC50 [40]: 5.87 | pIC50 [41]: 6.69 | pIC50 [42]: 6.48 | pIC50 [43]: 6.46 | pIC50 [44]: 5.47 | pIC50 [45]: 6.85 | pIC50 [46]: 6.16 | pIC50 [47]: 6.68 | pIC50 [48]: 5.11 | pIC50 [49]: 6.72
SMILES: CC(C)c1ccccc1Cc1cc(C(=O)Nc2ccc(S(=O)(=O)c3ccccc3C(C)(C)C)cc2)c(O)c(O)c1O

SMILES: OCCCNc1cc(-c2ccnc(Nc3cccc(Cl)c3)n2)ccn1
pIC50 [1]: 6.91 | pIC50 [50]: 7.27 | pIC50 [2]: 7.40 | pIC50 [3]: 7.59 | pIC50 [4]: < 6.59 | pIC50 [5]: < 6.59 | pIC50 [6]: 6.87 | pIC50 [7]: 6.75 | pIC50 [8]: 7.16 | pIC50 [9]: < 6.59 | pIC50 [10]: < 6.59

SMILES: C#Cc1cccc(Nc2ncnc3cc(OCCOC)c(OCCOC)cc23)c1 [ERLOTINIB]
pIC50 [1]: < 5.70 | pIC50 [2]: < 5.70 | pIC50 [3]: < 5.70 | pIC50 [4]: < 5.70 | pIC50 [5]: < 5.70 | pIC50 [6]: < 5.70 | pIC50 [7]: < 5.70 | pIC50 [8]: < 5.70 | pIC50 [9]: < 5.70 | pIC50 [10]: < 5.70
